# Reference: US9732088B2, “C2-carbocyclic iminothiazine dioxides as BACE inhibitors, compositions, and their use” (Merck Sharp & Dohme Corp., priority 2014, dated 2017)
# pKi: −log10 of the molar value.
# Tests used:
# rat Mdr1a (P-gp) = rat Mdr1a (P-gp) (Rattus norvegicus, UniProt Q6PSM0); experiment: P-Glycoprotein (P-gp) Efflux Susceptibility Assay; assay type: in vitro ADME; details: LLC-PK1, pH 7.4; rat LLC-Mdr1a cells, B-A/A-B Papp ratio at 3 h; method 0.1 μM; read-out: P-gp efflux assay (rMDR1a BAAB)
# Description: Assay 6: P-Glycoprotein (P-Gp) Efflux Susceptibility Assay
# As P-gp is expressed at the blood-brain-barrier, among other tissues, lower P-gp efflux ratio values are associated with a better ability to cross the blood-brain-barrier to reach the site of BACE-1 expression in the central nervous system. P-gp efflux ratios are measured in cellular assays using cell lines that express P-gp from a number of species including rat, monkey, and human. The following assay was used to measure the rat P-gp efflux ratios, which are believed to be the most sensitive measure of P-gp susceptibility, for the compounds of the invention (test compounds) reported in the tables below.
# The bidirectional transport of test compounds was conducted across pig kidney epithelial (LLC-PK1) cell monolayers. Native LLC-PK1 cells were obtained from The Netherlands Cancer Institute (Amsterdam, The Netherlands), and used under a license agreement. LLC-PK1 cells expressing a cDNA encoding rat Mdr1a (rat LLC-Mdr1a) were made in-house by stable transfection of LLC-PK1 cells with a rat MDR1 cDNA. LLC-PK1 and rat LLC-Mdr1a cell lines were cultured in 96-well transwell culture plates. […] Substrate solution (150 μL) was added to either the apical (A) or the basolateral (B) compartment of the culture plate, and buffer (150 μL; HBSS, 10 mM HEPES, pH 7.4) was added to the compartment opposite to that containing the compound. At t=3 h, 50 μL samples were removed from both sides of monolayers dosed with test compound and placed in 96 well plates, internal standard (50 μL 1 μM labetolol) was added to the samples. Samples were analyzed by LC/MS/MS using an Applied Biosystems SCIEX API 5000 triple quadruple mass spectrometry (Concord, ON, Canada) with a TurbolonSpray ion source in the positive ion mode. A Thermo Scientific Transcend LX-2 system (Franklin, Mass.) was coupled to the API 5000 with a flow rate of 800 μL/min to direct sample into the mass spectrometer. A Waters ACQUITY UPLC T3 (2×30 mm, 1.7 μm; Milford, Mass.) column was used for sample analysis. Mobile phase A consisted of 0.1% formic acid in water. Mobile phase B was acetonitrile with 0.1% formic acid. A gradient elution program was utilized where the solvent composition was held at 5% B for 0.25 min, changed from 5% B to 95% B at 0.25 min, and followed by holding at 95% B for 0.5 min, then, went back to 5% B at 0.75 min. The column was then re-equilibrated at the original solvent composition for 0.5 min. Mass spectrometric detection was accomplished by multiple reaction monitoring (MRM) of transitions unique to each compound. Sample concentration was obtained by extrapolation from the standard curve. Verapamil (1 μM) was used as the positive control to assess the functional activity of Pgp. The experiment was performed in triplicate.
# The Papp was calculated by the following formula for samples taken at t=3 h:
# [formula] where “Volume of Receptor Chamber” is 0.15 mL, “Area of membrane” is 0.11 cm^2, the “Initial Concentration” is the sum of the concentration measured in the donor compartment plus the concentration measured in the receiver compartment at t=3 h, “Δ in Concentration” is the concentration in the receiver compartment at 3 h, and “Δ in Time” is the incubation time (3×60×60=10800 s). Papp was expressed as 10^−6 cm/s.
# The Papp reported in the table below is the average of the Papp for transport from A to B and Papp for transport from B to A at t=3 hr.
# The B-A/A-B ratio (BAAB) was calculated by dividing the Papp from B to A by the Papp from A to B at t=3 h: […]
# [1] = biological target: purified human autoBACE-2 (Homo sapiens (Human), UniProt Q9Y5Z0); experiment: BACE-2 Assay (BACE-HTRF assay); assay type: biochemical; details: Assay 2; Ki calculated from IC50 by Cheng-Prusoff; read-out: BACE2 Ki
# How it was run: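 Purified human autoBACE-2 (1 nM final) pre-incubated 30 min at 30° C with compounds in 20 mM sodium acetate pH 5.0, 10% glycerol, 0.1% Brij-35, 5% DMSO final; endpoint HTRF cleavage of QSY7/Eu FRET peptide, read at 620 nm (320 nm excitation). IC50 by sigmoidal regression of normalized data; Ki by Cheng-Prusoff.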
# Sequence of rat Mdr1a (P-gp) (Q6PSM0 1-1272): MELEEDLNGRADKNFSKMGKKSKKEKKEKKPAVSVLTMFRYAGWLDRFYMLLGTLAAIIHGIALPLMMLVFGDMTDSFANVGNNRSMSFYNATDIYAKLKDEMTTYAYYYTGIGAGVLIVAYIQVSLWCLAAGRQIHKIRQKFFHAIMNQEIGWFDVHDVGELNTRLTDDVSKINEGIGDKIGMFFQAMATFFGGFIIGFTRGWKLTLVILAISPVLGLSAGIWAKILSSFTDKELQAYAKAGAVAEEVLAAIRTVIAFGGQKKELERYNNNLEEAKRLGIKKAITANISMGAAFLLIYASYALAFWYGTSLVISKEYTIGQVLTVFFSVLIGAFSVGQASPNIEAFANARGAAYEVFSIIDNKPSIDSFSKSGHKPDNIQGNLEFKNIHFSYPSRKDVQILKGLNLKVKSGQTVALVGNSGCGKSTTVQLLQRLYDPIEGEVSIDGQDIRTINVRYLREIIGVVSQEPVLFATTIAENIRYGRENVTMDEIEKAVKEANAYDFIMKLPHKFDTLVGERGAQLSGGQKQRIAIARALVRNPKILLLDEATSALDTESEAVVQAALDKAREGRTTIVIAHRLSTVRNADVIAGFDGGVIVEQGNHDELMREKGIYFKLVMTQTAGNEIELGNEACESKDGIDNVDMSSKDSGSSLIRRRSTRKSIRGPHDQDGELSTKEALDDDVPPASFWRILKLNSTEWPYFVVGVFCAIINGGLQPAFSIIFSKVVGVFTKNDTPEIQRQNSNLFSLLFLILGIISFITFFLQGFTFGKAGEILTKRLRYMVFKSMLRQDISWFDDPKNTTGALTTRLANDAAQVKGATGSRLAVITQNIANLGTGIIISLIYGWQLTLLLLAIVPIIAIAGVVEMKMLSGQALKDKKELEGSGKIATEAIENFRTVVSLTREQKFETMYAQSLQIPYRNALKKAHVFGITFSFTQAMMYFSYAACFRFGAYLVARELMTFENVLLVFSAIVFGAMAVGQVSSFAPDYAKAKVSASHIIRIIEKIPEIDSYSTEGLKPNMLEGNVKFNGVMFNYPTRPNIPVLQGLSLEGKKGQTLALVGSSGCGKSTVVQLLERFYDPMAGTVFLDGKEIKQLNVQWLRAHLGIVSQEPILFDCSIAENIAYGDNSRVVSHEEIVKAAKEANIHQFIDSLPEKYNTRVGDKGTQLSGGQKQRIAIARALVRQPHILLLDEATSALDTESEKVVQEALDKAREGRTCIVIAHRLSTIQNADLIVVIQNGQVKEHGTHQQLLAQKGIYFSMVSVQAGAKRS
# Sequence of purified human autoBACE-2 (Q9Y5Z0 63-466): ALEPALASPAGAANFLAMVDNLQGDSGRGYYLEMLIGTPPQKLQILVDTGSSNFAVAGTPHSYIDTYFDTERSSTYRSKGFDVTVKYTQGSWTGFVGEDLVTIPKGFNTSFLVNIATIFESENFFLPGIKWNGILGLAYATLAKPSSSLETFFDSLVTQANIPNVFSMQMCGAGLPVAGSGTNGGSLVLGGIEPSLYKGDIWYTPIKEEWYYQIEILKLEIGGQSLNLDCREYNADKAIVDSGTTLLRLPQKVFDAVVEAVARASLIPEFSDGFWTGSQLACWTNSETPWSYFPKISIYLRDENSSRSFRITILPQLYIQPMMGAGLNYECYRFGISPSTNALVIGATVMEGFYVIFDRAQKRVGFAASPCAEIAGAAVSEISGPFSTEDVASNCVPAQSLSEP
Structure (SMILES),efflux ratio at 3 h (rat Mdr1a (P-gp)),pKi [1]
"COc1cnc2c(Nc3ccc(F)c([C@]4(C)CS(=O)(=O)C(C)(C)C(N)=N4)c3)nccc2n1 [Ex 47 of WO2014059185, reference compound]",7.9,–
"C[C@@]1(c2nc(Nc3nccc4cc(C#N)cnc34)ncc2F)CS(=O)(=O)[C@@](C)(C2CC2)C(N)=N1 [Example 5, 8-({4-[(3R,6S)-6-cyclopropyl-5-imino-3,6-dimethyl-1,1-dioxidothiomorpholin-3-yl]-5-fluoropyrimidin-2-yl}amino)-1,7-naphthyridine-3-carbonitrile]",31,8.11
"COc1cnc2c(Nc3cc([C@]4(C)CS(=O)(=O)[C@@](C)(C5CC5)C(N)=N4)c(F)cn3)nccc2c1 [Example 6, N-{4-[(3R,6S)-6-cyclopropyl-5-imino-3,6-dimethyl-1,1-dioxidothiomorpholin-3-yl]-5-fluoropyridin-2-yl}-3-methoxy-1,7-naphthyridin-8-amine]",1.5,9.24
"COc1cnc2c(Nc3ccc(F)c([C@]4(C)CS(=O)(=O)[C@@](C)(C5CC5)C(N)=N4)c3)nccc2c1 [Example 14, N-{3-[(3R,6S)-6-cyclopropyl-5-imino-3,6-dimethyl-1,1-dioxidothiomorpholin-3-yl]-4-fluorophenyl}-3-methoxy-1,7-naphthyridin-8-amine]",2.9,8.55
"C[C@@]1(c2cc(Nc3ncnc4cc(C#N)cnc34)ccc2F)CS(=O)(=O)[C@@](C)(C2CC2)C(N)=N1 [Example 16, 4-({3-[(3R,6S)-6-cyclopropyl-5-imino-3,6-dimethyl-1,1-dioxidothiomorpholin-3-yl]-4-fluorophenyl}amino)pyrido[3,2-d]pyrimidine-7-carbonitrile]",31,8.85
"C[C@@]1(c2cc(Nc3nccc4cc(C#N)cnc34)ccc2F)CS(=O)(=O)[C@@](C)(C2CC2)C(N)=N1 [Example 18, 8-({3-[(3R,6S)-6-cyclopropyl-5-imino-3,6-dimethyl-1,1-dioxidothiomorpholin-3-yl]-4-fluorophenyl}amino)-1,7-naphthyridine-3-carbonitrile]",11,9.19
"COc1cnc2c(Nc3ccc(F)c([C@]4(C)CS(=O)(=O)[C@@](C)(C5CC5)C(N)=N4)c3)ncnc2n1 [Example 22, (2S,5R)-2-cyclopropyl-5-(2-fluoro-5-((7-methoxypteridin-4-yl)amino)phenyl)-3-imino-2,5-dimethylthiomorpholine 1,1-dioxide]",26,7.96
"CC1(C)C(=N)N[C@](C)(c2cc(Nc3noc4cc(F)cnc34)ccc2F)CS1(=O)=O [WO′426 Ex. 30b, reference compound]",–,8.21
